System: aorta rings
Test: Vasorelaxant effect in vitro (phenylephrine-contracted rabbit aorta rings)
Assay type: cell-based, Rabbits
Settings: Oryctolagus cuniculus; concentration necessary to reduce the height of the phenylephrine-induced contraction of rabbit aorta rings by 50%; organ bath, 37° C., 0.1% DMSO
Procedure: B-1. Vasorelaxant effect in vitro
Rabbits are stunned by a blow to the neck and exsanguinated. The aorta is removed, freed from adhering tissue and divided into rings of a width of 1.5 mm The rings are placed individually under an initial tension in 5 ml organ baths with Krebs-Henseleit solution which is at 37° C., is gassed with carbogen and has the following composition (in each case mM): NaCl: 119; KCl: 4.8; CaCl2×2 H2O: 1; MgSO4×7 H2O: 1.4; KH2PO4: 1.2; NaHCO3: 25; glucose: 10. The force of contraction is detected with Statham UC2 cells, amplified and digitized via A/D converters (DAS-1802 HC, Keithley Instruments, Munich) and recorded in parallel on chart recorders. Contractions are induced by cumulatively adding increasing concentrations of phenylephrine to the bath. After several control cycles, the substance to be investigated is added in each further run in increasing dosage, and the height of the contraction achieved is compared with the height of the contraction reached in the last preceding one. The concentration necessary to reduce the height of the control value by 50% is calculated from this (IC50 value). The standard application volume is […] the proportion of DMSO in the bath solution corresponds to 0.1%.

| IC50 [µM] | Compound |
| --- | --- |
| 2.15 | Nc1nc(-n2nc(Sc3ccccc3F)c3ccccc32)nc(N)c1N [Example 3, 2-{3-[(2-Fluorophenyl)sulphanyl]-1H-indazol-1-yl}pyrimidine-4,5,6-triamine] |
| 1.43 | CC(C)OC(=O)Nc1c(N)nc(-n2nc(Sc3ccccc3F)c3ncccc32)nc1N [Example 9, Propan-2-yl (4,6-diamino-2-{3-[(2-fluorophenyl)sulphanyl]-1H-pyrazolo[4,3-b]pyridin-1-yl}pyrimidin-5-yl)carbamate] |
| 4.93 | CC(C)OC(=O)Nc1c(N)nc(-n2nc(Sc3ccccc3F)c3ccccc32)nc1N [Example 12, Propan-2-yl (4,6-diamino-2-[3-[(2-fluorophenyl)sulphanyl]-1H-indazol-1-yl]pyrimidin-5-yl)-carbamate] |
| 5.64 | CC(C)OC(=O)Nc1c(N)nc(-n2nc(Oc3ccccc3F)c3ccccc32)nc1N [Example 19, Propan-2-yl{4,6-diamino-2-[3-(2-fluorophenoxy)-1H-indazol-1-yl]pyrimidin-5-yl}carbamate] |

Source: US20120029002A1, “BENZIMIDAZOLE AND PYRAZOLOPYRIDINE DERIVATIVES FOR TREATING AND/OR PREVENTING CARDIOVASCULAR DISEASES” (BAYER SCHERING PHARMA AKTIENGESELLSCHAFT, priority 2009, published 2012)
